Assay results published in patent US8802664B2 (Bioproject, priority 2010, dated 2014).
Where a name gives a salt, the structure may show the parent alone. Each block holds one molecule with its values, some of them ahead of it.

Columns and labels:
human H4 receptor = target: T1, human H4 receptor (Homo sapiens, UniProt Q9H3N8); experiment: [3H]Histamine binding on membranes of CHO cells stably expressing human H4 receptor
T1 construct: expressed in transfected cells
Outline: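 Membranes from sub-confluent CHO-hH4 cells, 20 μg protein per well, were incubated in 50 mM Tris/HCl, 0.5 mM EDTA, pH 7.4. Nonspecific binding was defined with 10 μM JNJ 7777120. Bound radioactivity was collected on PEI-soaked GF/B filters and counted by liquid scintillation.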

SMILES: CN1CCC(OC(c2nc3ccccc3[nH]2)c2cc(F)ccc2F)CC1 (centres unmarked) [Example 424, 2-[(2,5-difluorophenyl)(1-methylpiperidin-4-yloxy)methyl]-1H-benzimidazole]
Ki or IC50 activity class (human H4 receptor): < 300 nM | melting point: 140 °C

SMILES: CN1CCC(OC(c2nc3ccccc3[nH]2)c2cc(Cl)ccc2O)CC1 (centres unmarked) [Example 569]
Ki or IC50 activity class (human H4 receptor): < 30 nM | melting point: 185 °C

SMILES: CN1CCC(OC(c2nc3ccccc3[nH]2)c2cc(Br)ccc2F)CC1 (centres unmarked) [Example 555]
Ki or IC50 activity class (human H4 receptor): < 30 nM | melting point: 232 °C

SMILES: CCc1cccc(C(NC2CCN(C)CC2)c2nc3ccccc3[nH]2)c1 (centres unmarked) [Example 61, [(1H-benzimidazol-2-yl)(3-ethylphenyl)methyl](1-methylpiperidin-4-yl)amine]
Ki or IC50 activity class (human H4 receptor): < 30 nM | melting point: 76 °C

SMILES: CN1CCC(OC(c2ccccc2)c2nc3cccc(N)c3[nH]2)CC1 (centres unmarked) [Example 200, 2-[(1-methylpiperidin-4-yloxy)phenyl-methyl]-3H-benzimidazol-4-ylamine]
Ki or IC50 activity class (human H4 receptor): < 300 nM | melting point: 96.7 °C

SMILES: CN1CCC(OC(c2nc3ccccc3[nH]2)c2cccc(OC(F)(F)F)c2O)CC1 (centres unmarked) [Example 620]
Ki or IC50 activity class (human H4 receptor): < 30 nM | melting point: 126 °C

SMILES: Cc1ccc(C(OC2CCN(C)CC2)c2nc3cc(F)ccc3[nH]2)c(F)c1 (centres unmarked) [Example 548]
Ki or IC50 activity class (human H4 receptor): < 30 nM | melting point: 90 °C

SMILES: CN1CCC(OC(c2nc3ccccc3[nH]2)c2ccccc2O)CC1 (centres unmarked) [Example 561, 2-[(1H-benzimidazol-2-yl)(1-methylpiperidin-4-yloxy)methyl]phenol]
Ki or IC50 activity class (human H4 receptor): < 30 nM | melting point: 118 to 120 °C

SMILES: CN1CCC(OC(c2cccc(SCCNC(=N)NC(=O)OC(C)(C)C)c2)c2nc3ccccc3s2)CC1 (centres unmarked) [Example 304, N-tert-butoxycarbonyl-N′-(2-{3-[(benzothiazol-2-yl)(1-methylpiperidin-4-yloxy)methyl]phenylsulfanyl}ethyl)guanidine]
Ki or IC50 activity class (human H4 receptor): < 30 nM | melting point: 110 °C

SMILES: CN1CCC(OC(c2ccc(C(F)(F)F)cc2)c2nc3ccccc3[nH]2)CC1 (centres unmarked) [Example 537]
Ki or IC50 activity class (human H4 receptor): < 1000 nM | melting point: 86 °C

SMILES: CN1CCC(COC(c2cccc(C#CCCCN)c2)c2nc3cc(F)ccc3[nH]2)C1 (centres unmarked) (as salt: oxalate) [Example 462]
melting point: 200 °C

SMILES: CN1CCC(NC(c2cccc(OCc3cc(F)ccc3F)c2)c2nc3ccccc3[nH]2)CC1 (centres unmarked) (as salt: oxalate) [Example 149, {(1H-benzimidazol-2-yl)[3-(2,5-difluoro-benzyloxy)phenyl]methyl}(1-methylpiperidin-4-yl)amine]
melting point: 159 °C

SMILES: CN1CCC(OC(c2cccc(-c3ccccc3Cl)c2)c2nc3ccccc3[nH]2)CC1 (centres unmarked) (as salt: oxalate) [Example 121, 2-[(2′-Chlorobiphenyl-3-yl)(1-methylpiperidin-4-yloxy)methyl]-1H-benzimidazole]
melting point: 130 °C

SMILES: CN1CCC(OC(c2ccc(Cl)cc2)c2nc3ccccc3[nH]2)CC1 (centres unmarked) (as salt: oxalate) [Example 226, 2-[(4-chlorophenyl)(1-methylpiperidin-4-yloxy)methyl]-1H-benzimidazole]
melting point: 175 °C

SMILES: CN1CCC(OC(c2ccc3ccsc3c2)c2nc3ccccc3[nH]2)CC1 (centres unmarked) (as salt: oxalate) [Example 556, 2-[benzo[b]thiophen-6-yl(1-methylpiperidin-4-yloxy)methyl]-1H-benzimidazole]
melting point: 160 °C

SMILES: CN1CCC(OC(c2cccc(OCCN3CCN(C(=O)OC(C)(C)C)CC3)c2)c2nc3ccccc3[nH]2)CC1 (centres unmarked) (as salt: oxalate) [Example 369, 4-(2-{3-[(1H-benzimidazol-2-yl)(1-methylpiperidin-4-yloxy)methyl]phenoxy}ethyl)piperazine-1-carboxylic acid tert-butyl ester]
melting point: 92 °C

SMILES: CN1CCC(NC(c2cccc(OCCF)c2)c2nc3ccccc3[nH]2)CC1 (centres unmarked) (as salt: oxalate) [Example 180, {(1H-benzimidazol-2-yl)[3-(2-fluoro-ethoxy)phenyl]methyl}(1-methylpiperidin-4-yl)amine]
melting point: 155 °C

SMILES: CN1CCC(OC(c2cccc(OCCCCCNCCCCN)c2)c2nc3ccccc3[nH]2)CC1 (centres unmarked) (as salt: oxalate) [Example 419, N1-(5-{3-[(1H-benzimidazol-2-yl)(1-methylpiperidin-4-yloxy)methyl]phenoxy}pentyl)butane-1,4-diamine]
melting point: 162 °C

SMILES: CN1CCC(OC(c2nc3ccccc3[nH]2)c2ccc(F)cc2F)CC1 (centres unmarked) (as salt: oxalate) [Example 221, 2-[(2,4-difluorophenyl)(1-methylpiperidin-4-yloxy)methyl]-1H-benzimidazole]
melting point: 106 °C

SMILES: CC(=O)c1ccc(-c2cccc(C(OC3CCN(C)CC3)c3nc4ccccc4[nH]3)c2)cc1 (centres unmarked) (as salt: oxalate) [Example 108, 1-{3′-[(1H-benzimidazol-2-yl)(1-methylpiperidin-4-yloxy)methyl]biphenyl-4-yl}ethanone]
melting point: 115 °C

Next, values leading:

Ki or IC50 activity class (human H4 receptor): < 300 nM | melting point: 115 °C
SMILES: CN1CCC(OC(c2ccccc2)c2nc3ccccc3s2)CC1 (centres unmarked) [Example 1, 2-[(1-methylpiperidin-4-yloxy)phenylmethyl]benzothiazole]

melting point: 115 °C
SMILES: CNC1CCN(c2cccc(C(OC3CCN(C)CC3)c3nc4ccccc4s3)c2)C1 (centres unmarked) (as salt: oxalate) [Example 483]

melting point: 106 °C
SMILES: CN1CCC(OC(c2cccc(OCCCF)c2)c2nc3ccccc3[nH]2)CC1 (centres unmarked) (as salt: oxalate) [Example 475]

melting point: 50 °C
SMILES: CN1CCC(OC(c2cccc(OC3CCNC3)c2)c2nc3ccccc3s2)CC1 (centres unmarked) (as salt: oxalate) [Example 382, 2-{(1-methylpiperidin-4-yloxy)[3-(pyrrolidin-3-yloxy)phenyl]methyl}benzothiazole]

melting point: 155 °C
SMILES: CN1CCC(OC(c2ccc(OC(F)(F)F)cc2)c2nc3ccccc3s2)CC1 (centres unmarked) (as salt: oxalate) [Example 24, 2-[(1-methylpiperidin-4-yloxy)(4-trifluoromethoxyphenyl)methyl]benzothiazole]

melting point: 125 °C
SMILES: CN1CCC(OC(c2cccc(C#CCNC(=N)N)c2)c2nc3ccccc3s2)CC1 (centres unmarked) (as salt: hydrochloride) [Example 373, N-(3-{3-[benzothiazol-2-yl(1-methylpiperidin-4-yloxy)methyl]phenyl}prop-2-ynyl)guanidine]

melting point: 178 to 179 °C
SMILES: CN1CCC(OC(c2nc3ccccc3s2)c2ccccc2F)CC1 (centres unmarked) (as salt: oxalate) [Example 6, 2-[(2-fluorophenyl)(1-methylpiperidin-4-yloxy)methyl]benzothiazole]

melting point: 167 to 170 °C
SMILES: CN1CCC(OC(c2cccc(F)c2)c2nc3ccccc3s2)CC1 (centres unmarked) (as salt: oxalate) [Example 5]

melting point: 72 °C
SMILES: CN1CCC(OC(c2cccc(OCCCF)c2)c2nc3ccccc3s2)CC1 (centres unmarked) (as salt: oxalate) [Example 176, 2-[[3-(3-fluoropropoxy)phenyl](1-methylpiperidin-4-yloxy)methyl]benzothiazole]

melting point: 177 °C
SMILES: Cc1cccc(C(OC2CCN(C)CC2)c2nc3ccccc3s2)c1 (centres unmarked) (as salt: oxalate) [Example 8, 2-[(1-methylpiperidin-4-yloxy)(m-tolyl)methyl]benzothiazole]
